The values that follow come from patent US10370372B2, “Fused pyrimidine compound or salt thereof” (TAIHO PHARMACEUTICAL CO., LTD., priority 2015, dated 2019).

Holding throughout (assay type): cell-based
In one test the test system is AR expression in LNCaP. Briefly: Activity of reducing expression level of androgen receptor (Western blotting in LNCaP). To be noted: Homo sapiens, read-out: AR expression reducing activity. The method, then:
AR positive human prostate cancer cells LNCaP were seeded in a 6 well microplate (BD) at 3.5×10^5/well with RPMI1640 containing 5% FBS (hereinbelow, the medium is referred to as an evaluation medium), and then cultured overnight. […] After culture for 48 hours, the medium was removed and the cells were washed with PBS and added with 0.1 mL of Lysis buffer (M-PER added with Protease Inhibitor Cocktail), followed by keeping at 4° C. for 20 minutes. After cell lysis, the cell solution was centrifuged to recover the supernatant as cell lysate. […] The antibody-reacting band (anti AR receptor) was quantified by LAS Imaging System (FUJIFILM) using Super Signal West Dura Substrate (Thermo Scientific) as a detection reagent.
When the AR expression reducing activity is 50% or more, it is described as “reduced”.

The subject of test [1] is Human prostate cancer cells LNCaP. As to the kind of experiment: Inhibitory activity on androgen-dependent proliferation of prostate cancer cells. The note with it: 1 nmol/L DHT, 72 hours, Cell Counting Kit-8, read-out: Proliferation inhibition concentration GI50 value. The method, then: Human prostate cancer cells LNCaP (Non-Patent Literature 5) having […] androgen receptor gene were seeded in a clear bottom 96 well microplate (BD) at 4.0×10^3/well with phenol red free RPMI1640 containing 5% DCC-FBS (hereinbelow, the medium is referred to as an evaluation medium), and then cultured overnight. […] Then, the number of viable cells was measured. The number of viable cells was measured by using Cell Counting Kit-8 (DOJINDO LABORATORIES).

The subject of test [2] is AR positive human prostate cancer cells VCaP. Briefly: Agonist activity for AR: cell proliferation rate of VCaP cells. To be noted: 5-10000 nmol/L, 72 hours, relative to evaluation medium only, more than 10% = agonist activity. As for the experimental part:
Then, the number of viable cells was measured (test group). As a control, the cells were cultured after being added with the evaluation medium only, and the number of viable cells was measured (control group). The number of viable cells was measured by using CellTiter-Glo™ Luminescent Cell Viability Assay (Promega). From the measured number of viable cells, cell proliferation rate with respect to the compound of Examples or the compound of Comparative Examples was calculated based on the number of viable cells measured in the case of using the evaluation medium only. Cell proliferation rate (%)=(Number of viable cells in test group−Number of viable cells in control group)/(Number of viable cells in control group)×100
By considering an error in the number of viable cells measured in the case of using the evaluation medium only, when the cell proliferation rate was more than 10% at any concentration of the 8 concentrations which had been evaluated, it was determined to have an agonist activity for AR.

The next test has as its target T1, human androgen receptor (Homo sapiens, UniProt P10275).
T1 construct: expressed in transfected cells; host or cells: COS-7 cells (ATCC)
T1 sequence (P10275 1-920): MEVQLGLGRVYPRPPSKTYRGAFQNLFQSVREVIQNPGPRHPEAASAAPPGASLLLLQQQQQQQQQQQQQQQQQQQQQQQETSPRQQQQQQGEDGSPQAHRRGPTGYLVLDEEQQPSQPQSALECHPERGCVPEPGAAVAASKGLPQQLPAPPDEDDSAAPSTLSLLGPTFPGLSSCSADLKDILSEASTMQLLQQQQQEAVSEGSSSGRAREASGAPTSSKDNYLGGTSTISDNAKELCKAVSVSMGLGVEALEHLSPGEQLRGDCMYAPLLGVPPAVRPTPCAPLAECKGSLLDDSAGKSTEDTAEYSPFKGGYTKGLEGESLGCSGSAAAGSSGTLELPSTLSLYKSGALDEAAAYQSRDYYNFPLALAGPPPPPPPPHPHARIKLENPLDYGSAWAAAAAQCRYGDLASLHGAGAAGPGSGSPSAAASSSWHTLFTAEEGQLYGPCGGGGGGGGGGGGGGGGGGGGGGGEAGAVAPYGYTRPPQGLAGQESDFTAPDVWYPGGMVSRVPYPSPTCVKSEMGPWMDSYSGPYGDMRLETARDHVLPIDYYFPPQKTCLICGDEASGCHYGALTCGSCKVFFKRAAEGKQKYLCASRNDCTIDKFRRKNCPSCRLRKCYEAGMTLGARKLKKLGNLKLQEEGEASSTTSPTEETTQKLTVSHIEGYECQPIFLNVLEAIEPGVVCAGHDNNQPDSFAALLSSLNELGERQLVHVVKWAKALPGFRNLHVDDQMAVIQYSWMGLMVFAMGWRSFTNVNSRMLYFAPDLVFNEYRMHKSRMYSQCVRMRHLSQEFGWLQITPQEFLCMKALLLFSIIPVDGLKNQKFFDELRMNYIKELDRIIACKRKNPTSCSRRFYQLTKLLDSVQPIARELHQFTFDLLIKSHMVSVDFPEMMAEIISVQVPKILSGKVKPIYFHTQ
Briefly: Antagonist activity for AR: MMTV-luc reporter transcription in COS-7 cells transfected with human AR, stimulated with DHT. As for the experimental part:
Antagonist activity for AR was evaluated according to the following method. COS-7 cells (ATCC) were transfected with pMMTV-luc vector (reporter plasmid having, as an androgen response element, […] long terminal repeat) and pEX-hAR vector (human androgen receptor expression vector: which expresses human AR gene under control of CMV promoter) by using Nucleofector (registered trademark) Kit R (Lonza) as a transfection reagent and Amaxa (Lonza). The COS-7 cells obtained after transfection were seeded in a clear bottom 96 well microplate (BD) at 1.5×10^4/well with phenol red free RPMI1640 containing 10% charcoal-treated fetal bovine serum (hereinbelow, DCC-FBS) (hereinbelow, the medium is referred to as an evaluation medium), and then cultured overnight. […] Then, the transcription activity value of the reporter plasmid was measured. The transcription activity was measured by using Bright-Glo™ Luciferase Assay System (Promega).

Where two headings read alike, the source gives them in different places.

Take `N#Cc1ccc(N2CCc3c(ncnc3Nc3ccc(C(=O)NC4CC4)nn3)C2)cc1C(F)(F)F` [Example 9, 6-((7-(4-cyano-3-(trifluoromethyl)phenyl)-5,6,7,8-tetrahydropyrido[3,4-d]pyrimidin-4-yl)amino)-N-cyclopropylpyridazine-3-carboxamide]: the inhibition at 10 µM in the test with AR expression in LNCaP (48 h) is above 50%. The GI50 in test [1] amounted to 510 nM. The “Cell proliferation rate (%)” value in test [2] is on record as −3.0%. For the same compound, inhibition against human androgen receptor was half-maximal at 30 nM (IC50).

With `N#Cc1ccc(N2CCc3c(ncnc3Nc3ccc(OC(F)(F)F)cc3)C2)cc1C(F)(F)F` [Example 27, 4-(4-((4-(trifluoromethoxy)phenyl)amino)-5,6-dihydropyrido[3,4-d]pyrimidin-7(8H)-yl)-2-(trifluoromethyl)benzonitrile], the inhibition at 10 µM in the test on AR expression in LNCaP (48 h) was above 50%. Also, the GI50 in test [1] is 1000 nM. Besides, the “Cell proliferation rate (%)” value in test [2] was 3.8%. The compound further gave a half-inhibitory concentration (IC50) against human androgen receptor of 1000 nM.

As for `CC(C)(C)OC(=O)N1Cc2ccc(Nc3ncnc4c3CCN(c3ccc(C#N)c(Cl)c3)C4)cc2C1` [Example 29, tert-butyl 5-((7-(3-chloro-4-cyanophenyl)-5,6,7,8-tetrahydropyrido[3,4-d]pyrimidin-4-yl)amino)isoindoline-2-carboxylate], the inhibition at 10 µM with AR expression in LNCaP (48 h) is above 50%. In test [1], the GI50 is 830 nM. Also, the “Cell proliferation rate (%)” value in test [2] is on record as 2.4%. Besides, the IC50 at human androgen receptor worked out at 220 nM.

With `O=C(NCC(F)(F)F)c1ccc(Nc2ncnc3c2CCN(c2ccc([N+](=O)[O-])c(C(F)(F)F)c2)C3)nn1` [Example 24, 6-((7-(4-Nitro-3-(trifluoromethyl)phenyl)-5,6,7,8-tetrahydropyrido[3,4-d]pyrimidin-4-yl)amino)-N-(2,2,2-trifluoroethyl)pyridazine-3-carboxamide], the inhibition at 10 µM in the test with AR expression in LNCaP (10000 nmol/L, 48 hours, vs evaluation medium control) is above 50%. Also, the GI50 in test [1] was found to be 790 nM. The “Cell proliferation rate (%)” value in test [2] is 7.8%. Also, the IC50 on human androgen receptor (COS-7 cells with pMMTV-luc and pEX-hAR, 1 nmol/L DHT, 24 hours, read-out: AR antagonist IC50) was 180 nM.

Consider `CCNC(=O)c1ccc(Nc2ncnc3c2CCN(c2ccc(C#N)c(Cl)c2)C3)nc1F` [Example 1, 6-((7-(3-Chloro-4-cyanophenyl)-5,6,7,8-tetrahydropyrido[3,4-d]pyrimidin-4-yl)amino)-N-ethyl-2-fluoronicotinamide], for which the inhibition at 10 µM in the test with AR expression in LNCaP (48 h) was above 50%. In addition, in test [1], the GI50 came out at 83 nM. For the same compound, the “Cell proliferation rate (%)” value in test [2] was found to be 9.7%. The compound also returned an IC50 against human androgen receptor of 2.6 nM.

In the case of `CCNC(=O)c1ccc(Nc2ncnc3c2CCN(c2ccc(C#N)c(C(F)(F)F)c2)C3)nc1F` [Example 4, 6-((7-(4-cyano-3-(trifluoromethyl)phenyl)-5,6,7,8-tetrahydropyrido[3,4-d]pyrimidin-4-yl)amino)-N-ethyl-2-fluoronicotinamide], in the test on AR expression in LNCaP (48 h), the inhibition at 10 µM is above 50%. Also, in test [1], the GI50 stood at 1100 nM. The “Cell proliferation rate (%)” value in test [2] is reported as 9.7%. At human androgen receptor, this compound returned an IC50 of 45 nM.

In the case of `N#Cc1ccc(N2CCc3c(ncnc3Nc3ccc(N4CC5(COC5)C4)cc3)C2)cc1Cl` [Example 28, 4-(4-((4-(2-oxa-6-azaspiro[3.3]heptan-6-yl)phenyl)amino)-5,6-dihydropyrido[3,4-d]pyrimidin-7(8H)-yl)-2-chlorobenzonitrile], the inhibition at 10 µM in the test with AR expression in LNCaP (48 h) is above 50%. Besides, the GI50 in test [1] was found to be 680 nM. Moreover, in test [2], the “Cell proliferation rate (%)” value is listed as 1.4%. For the same compound, 680 nM corresponded to half-maximal inhibition against human androgen receptor (IC50).
